Reference: ChEMBL document CHEMBL1143607, “Pyridinium-1-yl bisphosphonates are potent inhibitors of farnesyl diphosphate synthase and bone resorption” (J Med Chem, 2005)

What was measured:
[1] = Effective concentration against human Gamma delta T cells; type: functional, cell-based; settings: t-cell
[2] = tested on: Dictyostelium discoideum; experiment: Inhibitory concentration against Dictyostelium discoideum cell growth; type: functional, organism-based, Fungi
[3] = species: Mus musculus; experiment: In vitro inhibitory concentration against bone resorption in 17 day old fetal mouse metatarsals; type: functional

Row | EC50 [1] | IC50 [3] | SMILES | IC50 [2]
1 | 150 µM |  | O=P([O-])(O)C(O)(C[n+]1ccc(Cc2ccccc2)cc1)P(=O)(O)O (stereo unspecified) | 12 µM
2 | 4.8 µM | 0.67 µM | O=P([O-])(O)C(O)(C[n+]1ccccc1)P(=O)(O)O (stereo unspecified) | 2.1 µM
3 | 4.4 µM |  | CCc1ccc[n+](CC(O)(P(=O)([O-])O)P(=O)(O)O)c1 (stereo unspecified) | 5.6 µM
4 | 4.1 µM | 0.41 µM | O=P([O-])(O)C(O)(C[n+]1cccc(-c2ccccc2)c1)P(=O)(O)O (stereo unspecified) | 3.8 µM
5 | 44 µM |  | Cc1cccc(Cc2ccc[n+](CC(O)(P(=O)([O-])O)P(=O)(O)O)c2)c1 (stereo unspecified) | 9.2 µM
6 | 56 µM |  | O=P([O-])(O)C(O)(C[n+]1cccc2cc(Cl)ccc21)P(=O)(O)O (stereo unspecified) | 72 µM
7 |  | 0.22 µM | Nc1c[n+](CC(P(=O)([O-])O)P(=O)(O)O)ccn1 (stereo unspecified) | 
8 | 4.5 µM | 0.22 µM | Cc1ccc[n+](CC(O)(P(=O)([O-])O)P(=O)(O)O)c1 (stereo unspecified) | 1.5 µM
9 | 2.5 µM |  | O=P([O-])(O)C(O)(C[n+]1cccc(-c2ccc(O)cc2)c1)P(=O)(O)O (stereo unspecified) | 2.9 µM
10 | 2.7 µM | 0.075 µM | O=P([O-])(O)C(O)(C[n+]1cccc(F)c1)P(=O)(O)O (stereo unspecified) | 4.6 µM
11 | 9.3 µM | 0.37 µM | COc1ccc[n+](CC(O)(P(=O)([O-])O)P(=O)(O)O)c1 (stereo unspecified) | 6 µM
12 | 91 µM |  | O=P([O-])(O)C(O)(C[n+]1cccc(Cc2ccccc2)c1)P(=O)(O)O (stereo unspecified) | 11 µM
13 | 4.3 µM |  | CCCCc1ccc[n+](CC(O)(P(=O)([O-])O)P(=O)(O)O)c1 (stereo unspecified) | 2.9 µM
14 | 30 µM |  | O=P([O-])(O)C(O)(C[n+]1ccc2ccccc2c1)P(=O)(O)O (stereo unspecified) | 20 µM
15 | 32 µM | 0.29 µM | NCCCC(O)(P(=O)(O)O)P(=O)(O)O [ALENDRONIC ACID] | 
16 | 43 µM | 1.6 µM | NCCC(O)(P(=O)(O)O)P(=O)(O)O [PAMIDRONIC ACID] | 
17 | 5 µM | 0.3 µM | O=P(O)(O)C(O)(Cc1cccnc1)P(=O)(O)O [RISEDRONIC ACID] | 

Row | SMILES | EC50 [1] | IC50 [3] | IC50 [2]
18 | O=P(O)(O)C(O)(Cn1ccnc1)P(=O)(O)O [ZOLEDRONIC ACID] | 5.4 µM | 0.034 µM | 2.9 µM
